Laboratory results as given in patent publication US10421755B2, “Salts of aza-bicyclic di-aryl ethers and methods to make them or their precursors” (Novartis AG, priority 2011, dated 2019).
Several values for one entry are separate records, joined by “and”; a condition that tells them apart may be missing. Identical values can stand only once.

Assays:
[1] = Stability of the active ingredient in tablets; type: physicochemical; conditions: tablets where only certain lubricants are used
Protocol: It is particularly important that the active ingredient remains chemically stable over a potential long shelf time. When assessing storage stability, relative amounts of individual degradation products compared to the total amount of active ingredient are taken into consideration. Individual degradation products should all be present in low relative amounts to ensure that no single product can reach a non-acceptable level, e.g. when the active ingredient is administered in high doses.

[2] = Loss on drying / initial water content; type: physicochemical; parameters: Initial water content: unit not given here
[3] = Pharmacokinetics in rats after oral administration; type: in vivo, Wistar rats; conditions: 10 mg/kg oral
Protocol: If a salt forming agent is used (e.g. fumarate), a corresponding higher amount of the salt will be used to achieve the intended dosing.
Both compounds were dissolved in Klucel™ (0.5% in water) and were orally administered by gavage (5 ml/kg) to conscious rats (n=8, cross-over design).
K3-EDTA blood (˜0.2 ml) was collected by puncture of a sublingual vein under light isoflurane anesthesia at the following time points: 0.25, 0.5, 1, 2, 3, 4, 6, 8, 24 h post dose. Immediately after sampling, blood samples were put on ice and were processed to plasma by centrifugation at 4° C. within 15 min after sampling (1000 g, 10 min, 4° C.) to obtain ˜100 μl plasma/sample. All plasma samples were stored at −80° C. until analysis. Since the PK study was performed in a cross-over design, a recovery period of approximately 2 weeks took place before the next treatment/blood sampling was performed.
The determination of compounds in plasma was done by LC-MS/MS using electrospray ionization.

[4] = Oral bioavailability in dogs; type: in vivo, beagle dogs; conditions: 1.4 μmol/kg p.o.
Protocol: Assay: The compound was given to N=3 male beagle dogs in tritiated form:
The concentration of the compound in blood was determined by LC-RID. The procedure involved the addition of 5 μg of the compound as internal standard (200 μL of solution containing 25 μg/mL of the compound) to 1 mL of blood. After further addition of 1 mL of water, 0.1 mL of buffer pH 9 and 4 mL of tert-butylmethylether, the samples were shaken for 30 min and centrifuged (4000 g for 10 min at 22° C.). The organic phase was transferred into a tube and evaporated in a Speedvac. The residue was reconstituted in 250 μL of mobile phase-water (80:20 v/v) followed by 75 μL of n-hexane and transferred into an autosampler vial. After centrifugation (13,000 g for 2 min at 22° C.), the hexane layer was pipetted off and discarded, 200 μL of the remainder was injected onto an RP18 column (Waters XTerra, 5 μm, 3.9×150 mm at 40° C.) to separate the compound from potential metabolites and endogenous compounds. The mobile phase of ammonium acetate (10 mM: 0.1% v/v TFA-acetonitrile, 58:42 v/v) was used at a flow rate of 1.0 mL/min. The effluent was monitored by a UV-detector set at 261 nm. The peak corresponding to the unchanged compound was collected in a polyethylene vial by a fraction collector (SuperFrac, Pharmacia LKB) and analyzed for radioactivity. The concentration of the compound in each sample was calculated from the ratio of the amount of radioactivity in the eluate fraction to the area of the ultraviolet absorbance of the non-radiolabeled the compound, that was used as the internal standard.

[5] = Particle size measurements by Fraunhofer light diffraction; type: physicochemical; conditions: N=8
Protocol: Mean particle sizes, X90 and X10 are typically measured by Fraunhofer light diffraction.
To about 0.5 g of test substance add some drops of the dispersing aid (1% Octastat 5000 (Octel Corp.) in white spirit (Sangajol, Schweizerhall Chemie)). Mix intensively on a vortex mixer, in order to wet the substance thoroughly and to form a smooth and homogeneous paste. Dilute the paste with white spirit to a final volume of 3-6 ml and mix the dispersion again. Determine the cumulative volume distribution using a laser diffraction instrument, e.g. determine the particle sizes at the undersize values of 10%, 50% and 90% (x10, x50, x90). Measuring device: Sympatec HELOS (Sympatec GmbH; focal length: 500 mm, optical concentration≥5%, duration of measurement: 40 sec).
Dispersion device: Suspension cell (QUIXEL, Sympatec GmbH).

[6] = Known multiple solid forms; type: physicochemical; conditions: comparison table, Example 7
[7] = Stability in buffer solutions and in solid state; type: physicochemical
[8] = Decomposition temperature; type: physicochemical; parameters: unit not given here; conditions: comparison table, Example 7
[9] = Hygroscopicity (moisture gain at relative humidity); type: physicochemical; parameters: Hygroscopy @ 85% RH: unit not given here
[10] = male Wistar rats (n=8), mean (text: ± SD)
[11] = male Wistar rats, individual rats 01-08, listed as mono-fumarate, 10 mg/kg

Cc1ccc(-c2ccc(O[C@H]3CN4CCC3CC4)cn2)cc1.O=C(O)/C=C/C(=O)O [Compound B, (R)-3-(6-(4-methylphenyl)-pyridin-3-yloxy)-1-aza-bicyclo[2.2.2]octane hydrogenfumarate]
stability in tablets [1]: very stable | Loss on drying (LOD) of a sample [2]: < 0.03% | Initial water content ([2]; comparison table, Example 7): <0.5 | Concentration of free form in plasma, Mean All ([3]; male Wistar rats (n=8), 0.25 h, mean): 149 ng/mL | Concentration of free form in plasma, Mean All ([3]; male Wistar rats (n=8), 0.5 h, mean): 132 ng/mL | Concentration of free form in plasma, Mean All ([3]; male Wistar rats (n=8), 1 h, mean): 77.4 ng/mL | Concentration of free form in plasma, Mean All ([3]; male Wistar rats (n=8), 2 h, mean): 38.9 ng/mL | Concentration of free form in plasma, Mean All ([3]; male Wistar rats (n=8), 3 h, mean): 19.5 ng/mL | Concentration of free form in plasma, Mean All ([3]; male Wistar rats (n=8), 4 h, mean): 10.6 ng/mL | Concentration of free form in plasma, Mean All ([3]; male Wistar rats (n=8), 6 h, mean): 5.10 ng/mL | Concentration of free form in plasma, Mean All ([3]; male Wistar rats (n=8), 8 h, mean): 2.54 ng/mL | Concentration of free form in plasma, Mean All ([3]; male Wistar rats (n=8), 24 h, mean): 0.320 ng/mL | Tmax (h), all rats ([3]; male Wistar rats (n=8), Median [range], listed as mono-fumarate): 0.25 [0.25-0.50]^a h | Cmax/Dose (ng/mL)/(mg/kg), Mean All ([3]; male Wistar rats (n=8), mean): 16.5 (ng/mL)/(mg/kg) | AUClast (h · ng/mL), Mean All [3, 10]: 249 ± 42 ng·h/mL | Cmax (ng/mL), Mean All [3, 10]: 161 ± 53 ng/mL | Concentration of free form in plasma ([3]; male Wistar rats, 0.25 h, individual rats 01-08): 89.0 ng/mL | Concentration of free form in plasma ([3]; male Wistar rats, 0.25 h, individual rats 01-08, listed as mono-fumarate, 10 mg/kg): 167 ng/mL and 162 ng/mL and 77.8 ng/mL and 242 ng/mL and 204 ng/mL and 93.3 ng/mL and 153 ng/mL | Concentration of free form in plasma ([3]; male Wistar rats, 0.5 h, individual rats 01-08): 130 ng/mL | Concentration of free form in plasma ([3]; male Wistar rats, 0.5 h, individual rats 01-08, listed as mono-fumarate, 10 mg/kg): 104 ng/mL and 78.4 ng/mL and 99.7 ng/mL and 143 ng/mL and 179 ng/mL and 184 ng/mL and 138 ng/mL | Concentration of free form in plasma ([3]; male Wistar rats, 1 h, individual rats 01-08, listed as mono-fumarate, 10 mg/kg): 67.1 ng/mL and 88.8 ng/mL and 41.3 ng/mL and 62.8 ng/mL and 83.2 ng/mL and 80.8 ng/mL and 101 ng/mL and 94.2 ng/mL | Concentration of free form in plasma ([3]; male Wistar rats, 2 h, individual rats 01-08, listed as mono-fumarate, 10 mg/kg): 27.4 ng/mL and 39.2 ng/mL and 37.8 ng/mL and 24.6 ng/mL and 47.1 ng/mL and 37.6 ng/mL and 54.8 ng/mL and 42.6 ng/mL | Concentration of free form in plasma ([3]; male Wistar rats, 3 h, individual rats 01-08, listed as mono-fumarate, 10 mg/kg): 12.4 ng/mL and 17.7 ng/mL and 25.3 ng/mL and 11.7 ng/mL and 19.6 ng/mL and 20.6 ng/mL and 25.1 ng/mL and 23.2 ng/mL | Concentration of free form in plasma ([3]; male Wistar rats, 4 h, individual rats 01-08, listed as mono-fumarate, 10 mg/kg): 9.06 ng/mL and 10.6 ng/mL and 13.3 ng/mL and 5.90 ng/mL and 9.71 ng/mL and 11.8 ng/mL and 13.0 ng/mL and 11.1 ng/mL | Concentration of free form in plasma ([3]; male Wistar rats, 6 h, individual rats 01-08, listed as mono-fumarate, 10 mg/kg): 7.49 ng/mL and 3.47 ng/mL and 7.63 ng/mL and 5.79 ng/mL and 4.29 ng/mL and 4.24 ng/mL and 4.05 ng/mL and 3.87 ng/mL | Concentration of free form in plasma ([3]; male Wistar rats, 8 h, individual rats 01-08, listed as mono-fumarate, 10 mg/kg): 2.91 ng/mL and 2.35 ng/mL and 3.62 ng/mL and 2.62 ng/mL and 2.46 ng/mL and 1.94 ng/mL and 2.38 ng/mL and 2.07 ng/mL | AUClast [3, 11]: 202 ng·h/mL and 259 ng·h/mL and 212 ng·h/mL and 188 ng·h/mL and 269 ng·h/mL and 292 ng·h/mL and 298 ng·h/mL and 272 ng·h/mL | Cmax [3, 11]: 167 ng/mL and 162 ng/mL and 78.4 ng/mL and 99.7 ng/mL and 242 ng/mL and 204 ng/mL and 184 ng/mL and 153 ng/mL | Cmax/Dose (ng/mL)/(mg/kg) [3, 11]: 17.2 (ng/mL)/(mg/kg) and 16.4 (ng/mL)/(mg/kg) and 7.88 (ng/mL)/(mg/kg) and 10.2 (ng/mL)/(mg/kg) and 25.2 (ng/mL)/(mg/kg) and 21.1 (ng/mL)/(mg/kg) and 18.3 (ng/mL)/(mg/kg) and 15.7 (ng/mL)/(mg/kg) | Tlast [3, 11]: 8.0 h (2×) and 24.0 h (6×) | Tmax [3, 11]: 0.25 h (5×) and 0.50 h (3×) | T½ [3, 11]: 2.44 h and 5.02 h and 3.62 h and 3.71 h and 2.02 h and 3.97 h and 5.51 h | T½ (h), Mean All ([3]; male Wistar rats, mean): 3.76 h | Plasma (pmoles/ml ± SD) ([4]; 0.25 hour): 14.7 ± 1.1 pmol/mL | Plasma (pmoles/ml ± SD) ([4]; 0.5 hour): 49.4 ± 21.9 pmol/mL | Plasma (pmoles/ml ± SD) ([4]; 1 hour): 67.6 ± 22.6 pmol/mL | Plasma (pmoles/ml ± SD) ([4]; 2 hour): 75.2 ± 36.8 pmol/mL | Plasma (pmoles/ml ± SD) ([4]; 4 hour): 27.5 ± 13.3 pmol/mL | Plasma (pmoles/ml ± SD) ([4]; 8 hour): 8.1 ± 3.0 pmol/mL | Plasma (pmoles/ml ± SD) ([4]; 24 hour): 0.8 ± 0.7 pmol/mL | particle size x10 [5]: 5.6±0.5 μm | particle size x50 (mean particle size) [5]: 26.8±1.3 μm | particle size x90 [5]: 77.3±3.3 μm | Known Multiple forms [6]: No | solid-state stability [7]: good | stability in buffer solutions ([7]; many buffer solutions, various pH values): good stability | Decomposition temperature [8]: 207 | hygroscopicity (in words) [9]: slightly hygroscopic | moisture gain ([9]; at 85% relative humidity (RH)): 0.5% | Hygroscopy @ 85% RH ([9]; comparison table, Example 7): 0.5
